From article PMC8401042, “Non-Toxic Dimeric Peptides Derived from the Bothropstoxin-I Are Potent SARS-CoV-2 and Papain-like Protease Inhibitors” (Molecules, 2021)
Where two headings read alike, the source gives them in different places. Bridge positions count the residues as written; N and C are the ends. Square brackets hold non-standard residues; d marks the D form. Peptide text beside a SMILES is read from it. I, II: the chains in the order shown.

What was measured:
SARS-CoV-2 PLpro [1] = target: T1, SARS-CoV-2 PLpro (Severe acute respiratory syndrome coronavirus 2, UniProt P0DTD1); assay: SARS-CoV-2 PLpro FRET enzyme inhibition assay; type: biochemical; details: for inhibition at 10 µM: 10 µM peptide, 27 µM substrate, 37 °C
SARS-CoV-2 PLpro [2] = target: T1, SARS-CoV-2 PLpro; assay: Microscale thermophoresis (MST) binding assay; details: 100 nM labelled PLpro, peptides 0.015 to 500 µM, 50 mM HEPES pH 7.5, 100 mM NaCl, 2 mM DTT, DMSO 5%; triplicate, Hill fit
SARS-CoV-2 = details: for SARS-CoV-2 % of inhibition at 100 µM: 24 h
[3] = calculated from IC50 values, Figure 3A, read-out: pIC50 (−logIC50), PLpro (converted)
[4] = 70 nM enzyme, 27 µM FRET substrate, 50 mM HEPES pH 7.5, 0.01% Triton X-100, 5 mM DTT, 30 min pre-incubation at 37 °C, Hill fit, two independent experiments, read-out: IC50 against PLpro

Compound | inhibition at 10 µM (SARS-CoV-2 PLpro [1]; 70 nM enzyme) [%] | IC50 (SARS-CoV-2 PLpro [1]; [3]) [nM] | Kd (SARS-CoV-2 PLpro [2]) [nM] | IC50 (SARS-CoV-2 PLpro [1]; [4]) [nM] | SARS-CoV-2 % of inhibition at 100 µM (SARS-CoV-2) [%] | SI = selectivity index (CC50/EC50) (SARS-CoV-2; CC50/EC50 in Vero cells)
CC(C)C[C@H](NC(=O)[C@H](Cc1c[nH]cn1)NC(=O)[C@H](Cc1ccc(O)cc1)NC(=O)[C@H](CCCNC(=N)N)NC(=O)[C@H](Cc1ccc(O)cc1)NC(=O)[C@H](CCCCN)NC(=O)[C@@H](N)CCCCN)C(=O)N[C@@H](CCCCN)C(=O)N1CCC[C@H]1C(=O)N[C@@H](Cc1ccccc1)C(=O)NCCCC[C@H](NC(=O)[C@H](Cc1ccccc1)NC(=O)[C@@H]1CCCN1C(=O)[C@H](CCCCN)NC(=O)[C@H](CC(C)C)NC(=O)[C@H](Cc1c[nH]cn1)NC(=O)[C@H](Cc1ccc(O)cc1)NC(=O)[C@H](CCCNC(=N)N)NC(=O)[C@H](Cc1ccc(O)cc1)NC(=O)[C@H](CCCCN)NC(=O)[C@@H](N)CCCCN)C(N)=O [(pBthTX-I)2K, des-Cys^11,Lys^12,Lys^13-(pBthTX-I)2K] (I: H-KKYRYHLKPFK-NH2 / II: H-KKYRYHLKPF; amide I:11-II:C) | 98 | 2400 | 900 ± 100 | – | – | –
CC(C)C[C@H](NC(=O)[C@H](Cc1c[nH]cn1)NC(=O)[C@H](Cc1ccc(O)cc1)NC(=O)[C@H](CCCNC(=N)N)NC(=O)[C@H](Cc1ccc(O)cc1)NC(=O)[C@H](CCCCN)NC(=O)[C@H](C)N)C(=O)N[C@@H](CCCCN)C(=O)N1CCC[C@H]1C(=O)N[C@@H](Cc1ccccc1)C(=O)NCCCC[C@H](NC(=O)[C@H](Cc1ccccc1)NC(=O)[C@@H]1CCCN1C(=O)[C@H](CCCCN)NC(=O)[C@H](CC(C)C)NC(=O)[C@H](Cc1c[nH]cn1)NC(=O)[C@H](Cc1ccc(O)cc1)NC(=O)[C@H](CCCNC(=N)N)NC(=O)[C@H](Cc1ccc(O)cc1)NC(=O)[C@H](CCCCN)NC(=O)[C@H](C)N)C(N)=O [A1] (I: H-AKYRYHLKPFK-NH2 / II: H-AKYRYHLKPF; amide I:11-II:C) | 97 | – | 6000 ± 3000 | 3500 ± 100 | 4 | –
CC(C)C[C@H](NC(=O)[C@H](Cc1c[nH]cn1)NC(=O)[C@H](Cc1ccc(O)cc1)NC(=O)[C@H](CCCNC(=N)N)NC(=O)[C@H](Cc1ccc(O)cc1)NC(=O)[C@H](C)NC(=O)[C@@H](N)CCCCN)C(=O)N[C@@H](CCCCN)C(=O)N1CCC[C@H]1C(=O)N[C@@H](Cc1ccccc1)C(=O)NCCCC[C@H](NC(=O)[C@H](Cc1ccccc1)NC(=O)[C@@H]1CCCN1C(=O)[C@H](CCCCN)NC(=O)[C@H](CC(C)C)NC(=O)[C@H](Cc1c[nH]cn1)NC(=O)[C@H](Cc1ccc(O)cc1)NC(=O)[C@H](CCCNC(=N)N)NC(=O)[C@H](Cc1ccc(O)cc1)NC(=O)[C@H](C)NC(=O)[C@@H](N)CCCCN)C(N)=O [A2] (I: H-KAYRYHLKPFK-NH2 / II: H-KAYRYHLKPF; amide I:11-II:C) | 99 | – | 7000 ± 3000 | 2400 ± 30 | 10 | –
CC(C)C[C@H](NC(=O)[C@H](Cc1c[nH]cn1)NC(=O)[C@H](Cc1ccc(O)cc1)NC(=O)[C@H](CCCNC(=N)N)NC(=O)[C@H](C)NC(=O)[C@H](CCCCN)NC(=O)[C@@H](N)CCCCN)C(=O)N[C@@H](CCCCN)C(=O)N1CCC[C@H]1C(=O)N[C@@H](Cc1ccccc1)C(=O)NCCCC[C@H](NC(=O)[C@H](Cc1ccccc1)NC(=O)[C@@H]1CCCN1C(=O)[C@H](CCCCN)NC(=O)[C@H](CC(C)C)NC(=O)[C@H](Cc1c[nH]cn1)NC(=O)[C@H](Cc1ccc(O)cc1)NC(=O)[C@H](CCCNC(=N)N)NC(=O)[C@H](C)NC(=O)[C@H](CCCCN)NC(=O)[C@@H](N)CCCCN)C(N)=O [A3] (I: H-KKARYHLKPFK-NH2 / II: H-KKARYHLKPF; amide I:11-II:C) | 95 | – | 6000 ± 4000 | 1000 ± 30 | – | –
CC(C)C[C@H](NC(=O)[C@H](Cc1c[nH]cn1)NC(=O)[C@H](Cc1ccc(O)cc1)NC(=O)[C@H](C)NC(=O)[C@H](Cc1ccc(O)cc1)NC(=O)[C@H](CCCCN)NC(=O)[C@@H](N)CCCCN)C(=O)N[C@@H](CCCCN)C(=O)N1CCC[C@H]1C(=O)N[C@@H](Cc1ccccc1)C(=O)NCCCC[C@H](NC(=O)[C@H](Cc1ccccc1)NC(=O)[C@@H]1CCCN1C(=O)[C@H](CCCCN)NC(=O)[C@H](CC(C)C)NC(=O)[C@H](Cc1c[nH]cn1)NC(=O)[C@H](Cc1ccc(O)cc1)NC(=O)[C@H](C)NC(=O)[C@H](Cc1ccc(O)cc1)NC(=O)[C@H](CCCCN)NC(=O)[C@@H](N)CCCCN)C(N)=O [A4] (I: H-KKYAYHLKPFK-NH2 / II: H-KKYAYHLKPF; amide I:11-II:C) | 97 | – | 3000 ± 1000 | 2000 ± 30 | 10 | –
CC(C)C[C@H](NC(=O)[C@H](Cc1c[nH]cn1)NC(=O)[C@H](C)NC(=O)[C@H](CCCNC(=N)N)NC(=O)[C@H](Cc1ccc(O)cc1)NC(=O)[C@H](CCCCN)NC(=O)[C@@H](N)CCCCN)C(=O)N[C@@H](CCCCN)C(=O)N1CCC[C@H]1C(=O)N[C@@H](Cc1ccccc1)C(=O)NCCCC[C@H](NC(=O)[C@H](Cc1ccccc1)NC(=O)[C@@H]1CCCN1C(=O)[C@H](CCCCN)NC(=O)[C@H](CC(C)C)NC(=O)[C@H](Cc1c[nH]cn1)NC(=O)[C@H](C)NC(=O)[C@H](CCCNC(=N)N)NC(=O)[C@H](Cc1ccc(O)cc1)NC(=O)[C@H](CCCCN)NC(=O)[C@@H](N)CCCCN)C(N)=O [A5] (I: H-KKYRAHLKPFK-NH2 / II: H-KKYRAHLKPF; amide I:11-II:C) | 95 | – | 3000 ± 2000 | 1900 ± 10 | – | –
CC(C)C[C@H](NC(=O)[C@H](C)NC(=O)[C@H](Cc1ccc(O)cc1)NC(=O)[C@H](CCCNC(=N)N)NC(=O)[C@H](Cc1ccc(O)cc1)NC(=O)[C@H](CCCCN)NC(=O)[C@@H](N)CCCCN)C(=O)N[C@@H](CCCCN)C(=O)N1CCC[C@H]1C(=O)N[C@@H](Cc1ccccc1)C(=O)NCCCC[C@H](NC(=O)[C@H](Cc1ccccc1)NC(=O)[C@@H]1CCCN1C(=O)[C@H](CCCCN)NC(=O)[C@H](CC(C)C)NC(=O)[C@H](C)NC(=O)[C@H](Cc1ccc(O)cc1)NC(=O)[C@H](CCCNC(=N)N)NC(=O)[C@H](Cc1ccc(O)cc1)NC(=O)[C@H](CCCCN)NC(=O)[C@@H](N)CCCCN)C(N)=O [A6] (I: H-KKYRYALKPFK-NH2 / II: H-KKYRYALKPF; amide I:11-II:C) | 97 | – | 5000 ± 3000 | 1800 ± 70 | 22 | –
CC(C)C[C@H](NC(=O)[C@H](Cc1c[nH]cn1)NC(=O)[C@H](Cc1ccc(O)cc1)NC(=O)[C@H](CCCNC(=N)N)NC(=O)[C@H](Cc1ccc(O)cc1)NC(=O)[C@H](CCCCN)NC(=O)[C@@H](N)CCCCN)C(=O)N[C@@H](C)C(=O)N1CCC[C@H]1C(=O)N[C@@H](Cc1ccccc1)C(=O)NCCCC[C@H](NC(=O)[C@H](Cc1ccccc1)NC(=O)[C@@H]1CCCN1C(=O)[C@H](C)NC(=O)[C@H](CC(C)C)NC(=O)[C@H](Cc1c[nH]cn1)NC(=O)[C@H](Cc1ccc(O)cc1)NC(=O)[C@H](CCCNC(=N)N)NC(=O)[C@H](Cc1ccc(O)cc1)NC(=O)[C@H](CCCCN)NC(=O)[C@@H](N)CCCCN)C(N)=O [A8] (I: H-KKYRYHLAPFK-NH2 / II: H-KKYRYHLAPF; amide I:11-II:C) | 99 | 2400 | – | – | – | –
CC(C)C[C@H](NC(=O)[C@H](Cc1c[nH]cn1)NC(=O)[C@H](Cc1ccc(O)cc1)NC(=O)[C@H](CCCNC(=N)N)NC(=O)[C@H](Cc1ccc(O)cc1)NC(=O)[C@H](CCCCN)NC(=O)[C@@H](N)CCCCN)C(=O)N[C@@H](CCCCN)C(=O)N1CCC[C@H]1C(=O)N[C@@H](C)C(=O)NCCCC[C@H](NC(=O)[C@H](C)NC(=O)[C@@H]1CCCN1C(=O)[C@H](CCCCN)NC(=O)[C@H](CC(C)C)NC(=O)[C@H](Cc1c[nH]cn1)NC(=O)[C@H](Cc1ccc(O)cc1)NC(=O)[C@H](CCCNC(=N)N)NC(=O)[C@H](Cc1ccc(O)cc1)NC(=O)[C@H](CCCCN)NC(=O)[C@@H](N)CCCCN)C(N)=O [A10] (I: H-KKYRYHLKPAK-NH2 / II: H-KKYRYHLKPA; amide I:11-II:C) | 98 | – | – | 2400 ± 200 | 7 | –
CC(C)C[C@@H](NC(=O)[C@@H](Cc1c[nH]cn1)NC(=O)[C@@H](Cc1ccc(O)cc1)NC(=O)[C@@H](CCCNC(=N)N)NC(=O)[C@@H](Cc1ccc(O)cc1)NC(=O)[C@@H](CCCCN)NC(=O)[C@H](N)CCCCN)C(=O)N[C@H](CCCCN)C(=O)N1CCC[C@@H]1C(=O)N[C@H](Cc1ccccc1)C(=O)NCCCC[C@@H](NC(=O)[C@@H](Cc1ccccc1)NC(=O)[C@H]1CCCN1C(=O)[C@@H](CCCCN)NC(=O)[C@@H](CC(C)C)NC(=O)[C@@H](Cc1c[nH]cn1)NC(=O)[C@@H](Cc1ccc(O)cc1)NC(=O)[C@@H](CCCNC(=N)N)NC(=O)[C@@H](Cc1ccc(O)cc1)NC(=O)[C@@H](CCCCN)NC(=O)[C@H](N)CCCCN)C(N)=O [A12] (I: H-[dK][dK][dY][dR][dY][dH][dL][dK][dP][dF][dK]-NH2 / II: H-[dK][dK][dY][dR][dY][dH][dL][dK][dP][dF]; amide I:11-II:C; N-terminus assumed) | 96 | 1290 | 1600 ± 300 | – | 69 | –
Cc1c(-c2ccc(-c3ccccc3F)cc2)nc2ccc(F)cc2c1C(=O)O [BREQ, brequinar, reference compound] | – | – | – | – | – | >25
CC[C@H](C)[C@H](N)C(=O)N[C@@H](Cc1ccccc1)C(=O)NCC(=O)N[C@@H](C)C(=O)N[C@H](C(=O)N[C@@H](CC(C)C)C(=O)N1CCC[C@H]1C(=O)N[C@@H](CC(C)C)C(=O)N[C@@H](C)C(=O)N[C@@H](CC(C)C)C(=O)NCC(=O)N[C@@H](C)C(=O)N[C@@H](CC(C)C)C(=O)N[C@@H](CCCCN)C(=O)N[C@@H](CC(N)=O)C(=O)N[C@@H](CC(C)C)C(=O)N[C@H](C(=O)N[C@@H](CCCCN)C(N)=O)[C@@H](C)CC)[C@@H](C)CC [Hy-a1, Hylin a1, reference compound] (H-IFGAILPLALGALKNLIK-NH2; N-terminus and C-terminus assumed) | 13 | – | – | – | 59 | –
